Patent US8865623B2, “Herbicidally active cyclic diones and derivatives thereof, processes for their preparation, compositions, and method of controlling weeds” (Syngenta Limited, priority 2009, dated 2014)

Columns and labels:
Format in all cases: in vivo
[1] = tested on: Alopecurus myosuroides (ALOMY); experiment: Pre-emergence herbicidal activity, glasshouse pot test; conditions: Alopecurus myosuroides, 312 h, Rate 250 g/ha, evaluated after 13 days, read-out: Pre-emergence activity ALOMY (100=total damage to plant; 0=no damage to plant)
Description: (§1) Seeds of a variety of test species were sown in standard soil in pots. After cultivation for one day (pre-emergence) or after 8 days cultivation (post-emergence) under controlled conditions in a glasshouse (at 24/16° C., day/night; 14 hours light; 65% humidity), the plants were sprayed with an aqueous spray solution derived from the formulation of the technical active ingredient in acetone/water (50:50) solution containing 0.5% Tween 20 (polyoxyethelyene sorbitan monolaurate, CAS RN 9005-64-5). The test plants were then grown in a glasshouse under controlled conditions in a glasshouse (at 24/16° C., day/night; 14 hours light; 65% humidity) and watered twice daily. After 13 days for pre and post-emergence, the test was evaluated (100=total damage to plant; 0=no damage to plant).
(§2) Lolium perenne (LOLPE), Alopecurus myosuroides (ALOMY), Echinochloa crus-galli (ECHCG), and Avena fatua (AVEFA).

Avena fatua (AVEFA) [2] = experiment: as above; conditions: Avena fatua, 312 h, Rate 250 g/ha, evaluated after 13 days, read-out: Pre-emergence activity AVEFA (100=total damage to plant; 0=no damage to plant)
Description: as §1, §2

[3] = tested on: Echinochloa crus-galli (ECHCG); experiment: as above; conditions: Echinochloa crus-galli, 312 h, Rate 250 g/ha, evaluated after 13 days, read-out: Pre-emergence activity ECHCG (100=total damage to plant; 0=no damage to plant)
Description: as §1, §2

Lolium perenne (LOLPE) [4] = experiment: as above; conditions: Lolium perenne, 312 h, Rate 250 g/ha, evaluated after 13 days, read-out: Pre-emergence activity LOLPE (100=total damage to plant; 0=no damage to plant)
Description: as §1, §2

[5] = tested on: Alopecurus myosuroides (ALOMY); experiment: Post-emergence herbicidal activity, glasshouse pot test; conditions: Alopecurus myosuroides, 312 h, rate 250 g/ha, evaluated after 13 days, read-out: Post-emergence activity ALOMY (100=total damage to plant; 0=no damage to plant)
Description: as §1, §2

Avena fatua (AVEFA) [6] = experiment: as above; conditions: Avena fatua, 312 h, rate 250 g/ha, evaluated after 13 days, read-out: Post-emergence activity AVEFA (100=total damage to plant; 0=no damage to plant)
Description: as §1, §2

[7] = tested on: Echinochloa crus-galli (ECHCG); experiment: as above; conditions: Echinochloa crus-galli, 312 h, rate 250 g/ha, evaluated after 13 days, read-out: Post-emergence activity ECHCG (100=total damage to plant; 0=no damage to plant)
Description: as §1, §2

Lolium perenne (LOLPE) [8] = experiment: as above; conditions: Lolium perenne, 312 h, rate 250 g/ha, evaluated after 13 days, read-out: Post-emergence activity LOLPE (100=total damage to plant; 0=no damage to plant)
Description: as §1, §2

`CCc1ccc(Oc2ccc(Cl)cc2)cc1C1=C(O)C(C)(C)CCC1=O` [Example A-50] showed a pest or weed control at 250 g/ha ([1]; pre-emergence spray) of 0%, a pest or weed control at 250 g/ha (Avena fatua (AVEFA) [2]; pre-emergence spray) of 0% and a pest or weed control at 250 g/ha ([3]; pre-emergence spray) of 100%. The pest or weed control at 250 g/ha (Lolium perenne (LOLPE) [4]; pre-emergence spray) was 70%, the pest or weed control at 250 g/ha ([5]; glasshouse) was 0% and the pest or weed control at 250 g/ha (Avena fatua (AVEFA) [6]; glasshouse) was 0%. It also gave a pest or weed control at 250 g/ha ([7]; glasshouse) of 50% and a pest or weed control at 250 g/ha (Lolium perenne (LOLPE) [8]; glasshouse) of 60%.
`CCc1ccc(Oc2ccc([N+](=O)[O-])c(Cl)c2)cc1C1=C(O)C(C)(C)OC(C)(C)C1=O` [Example A-67] showed a pest or weed control at 250 g/ha ([1]; pre-emergence spray) of 90%, a pest or weed control at 250 g/ha (Avena fatua (AVEFA) [2]; pre-emergence spray) of 90% and a pest or weed control at 250 g/ha ([3]; pre-emergence spray) of 100%. For the same compound, the pest or weed control at 250 g/ha (Lolium perenne (LOLPE) [4]; pre-emergence spray) was 100%, the pest or weed control at 250 g/ha ([5]; glasshouse) was 100% and the pest or weed control at 250 g/ha (Avena fatua (AVEFA) [6]; glasshouse) was 80%. The pest or weed control at 250 g/ha ([7]; glasshouse) was 100% and the pest or weed control at 250 g/ha (Lolium perenne (LOLPE) [8]; glasshouse) was 90%.
`CCc1ccc(Oc2ccc(Br)cc2F)cc1C1=C(O)[C@@H]2CC[C@](C)(C1=O)C2(C)C` [Example A-238] was tested, and the pest or weed control at 250 g/ha ([1]; pre-emergence spray) was 60%, the pest or weed control at 250 g/ha (Avena fatua (AVEFA) [2]; pre-emergence spray) was 40% and the pest or weed control at 250 g/ha ([3]; pre-emergence spray) was 100%. The pest or weed control at 250 g/ha (Lolium perenne (LOLPE) [4]; pre-emergence spray) was 90%, the pest or weed control at 250 g/ha ([5]; glasshouse) was 70% and the pest or weed control at 250 g/ha (Avena fatua (AVEFA) [6]; glasshouse) was 90%. The pest or weed control at 250 g/ha ([7]; glasshouse) was 100% and the pest or weed control at 250 g/ha (Lolium perenne (LOLPE) [8]; glasshouse) was 90%.
With `CC1(C)OC(C)(C)C(O)=C(c2cc(Oc3ccc(F)cc3)ccc2C2CC2)C1=O` [Example A-353] the pest or weed control at 250 g/ha ([1]; pre-emergence) was 0%, the pest or weed control at 250 g/ha (Avena fatua (AVEFA) [2]; pre-emergence) was 0% and the pest or weed control at 250 g/ha ([3]; pre-emergence) was 100%. For the same compound, the pest or weed control at 250 g/ha (Lolium perenne (LOLPE) [4]; pre-emergence) was 30%, the pest or weed control at 250 g/ha [5] was 10% and the pest or weed control at 250 g/ha (Avena fatua (AVEFA) [6]) was 10%. It also gave a pest or weed control at 250 g/ha [7] of 100% and a pest or weed control at 250 g/ha (Lolium perenne (LOLPE) [8]) of 50%.
`COc1ccc2nc(Oc3ccc(C4CC4)c(C4=C(O)C(C)(C)OC(C)(C)C4=O)c3)sc2c1` [Example A-374] was tested, and the pest or weed control at 250 g/ha ([1]; pre-emergence) was 50%, the pest or weed control at 250 g/ha (Avena fatua (AVEFA) [2]; pre-emergence) was 30% and the pest or weed control at 250 g/ha ([3]; pre-emergence) was 90%. It also gave a pest or weed control at 250 g/ha (Lolium perenne (LOLPE) [4]; pre-emergence) of 100%, a pest or weed control at 250 g/ha [5] of 90% and a pest or weed control at 250 g/ha (Avena fatua (AVEFA) [6]) of 90%. It also gave a pest or weed control at 250 g/ha [7] of 100% and a pest or weed control at 250 g/ha (Lolium perenne (LOLPE) [8]) of 100%.
With `CCc1ccc(Oc2cccc(Br)c2)cc1C1=C(O)C(C)(C)OC(C)(C)C1=O` [Example A-32] the pest or weed control at 250 g/ha ([1]; pre-emergence spray) was 30%, the pest or weed control at 250 g/ha (Avena fatua (AVEFA) [2]; pre-emergence spray) was 20% and the pest or weed control at 250 g/ha ([3]; pre-emergence spray) was 90%. The pest or weed control at 250 g/ha (Lolium perenne (LOLPE) [4]; pre-emergence spray) was 80%, the pest or weed control at 250 g/ha ([5]; glasshouse) was 30% and the pest or weed control at 250 g/ha (Avena fatua (AVEFA) [6]; glasshouse) was 20%. It also gave a pest or weed control at 250 g/ha ([7]; glasshouse) of 100% and a pest or weed control at 250 g/ha (Lolium perenne (LOLPE) [8]; glasshouse) of 40%.
`CCc1ccc(Oc2nc3cc(Cl)ccc3s2)cc1C1=C(O)[C@H]2CC[C@H](C2)C1=O` [Example A-339] showed a pest or weed control at 250 g/ha ([1]; pre-emergence spray) of 100%, a pest or weed control at 250 g/ha (Avena fatua (AVEFA) [2]; pre-emergence spray) of 80% and a pest or weed control at 250 g/ha ([3]; pre-emergence spray) of 100%. For the same compound, the pest or weed control at 250 g/ha (Lolium perenne (LOLPE) [4]; pre-emergence spray) was 90%, the pest or weed control at 250 g/ha ([5]; glasshouse) was 100% and the pest or weed control at 250 g/ha (Avena fatua (AVEFA) [6]; glasshouse) was 90%. The pest or weed control at 250 g/ha ([7]; glasshouse) was 100% and the pest or weed control at 250 g/ha (Lolium perenne (LOLPE) [8]; glasshouse) was 100%.
Compound `CCc1ccc(Oc2nc3ccc([N+](=O)[O-])cc3s2)cc1C1=C(O)CC(C)(C)CC1=O` [Example A-299] has a pest or weed control at 250 g/ha ([1]; pre-emergence spray) of 50%, a pest or weed control at 250 g/ha (Avena fatua (AVEFA) [2]; pre-emergence spray) of 20% and a pest or weed control at 250 g/ha ([3]; pre-emergence spray) of 100%. It also gave a pest or weed control at 250 g/ha (Lolium perenne (LOLPE) [4]; pre-emergence spray) of 100%, a pest or weed control at 250 g/ha ([5]; glasshouse) of 90% and a pest or weed control at 250 g/ha (Avena fatua (AVEFA) [6]; glasshouse) of 90%. For the same compound, the pest or weed control at 250 g/ha ([7]; glasshouse) was 100% and the pest or weed control at 250 g/ha (Lolium perenne (LOLPE) [8]; glasshouse) was 80%.
`CCc1ccc(Oc2ccc(Br)cc2C)cc1C1=C(O)C(C)(C)OC(C)(C)C1=O` [Example A-12] showed a pest or weed control at 250 g/ha ([1]; pre-emergence spray) of 0%, a pest or weed control at 250 g/ha (Avena fatua (AVEFA) [2]; pre-emergence spray) of 0% and a pest or weed control at 250 g/ha ([3]; pre-emergence spray) of 0%. It also gave a pest or weed control at 250 g/ha (Lolium perenne (LOLPE) [4]; pre-emergence spray) of 0%, a pest or weed control at 250 g/ha ([5]; glasshouse) of 20% and a pest or weed control at 250 g/ha (Avena fatua (AVEFA) [6]; glasshouse) of 0%. The pest or weed control at 250 g/ha ([7]; glasshouse) was 70% and the pest or weed control at 250 g/ha (Lolium perenne (LOLPE) [8]; glasshouse) was 50%.
